In patent US20230391786A1, “cGAS INHIBITORS” (Eli Lilly and Company, priority 2022, published 2023):
Where a name gives a salt, the structure may show the parent alone. Read-outs that look alike come from different tables or passages of the source.

Tests used:
[1] = test system: cGAS activity in THP1 cells (IFNb as marker); assay: Cellular assay to measure cGAS activity (IFNb production in PMA-differentiated THP1 cells stimulated by RDG-Adenovirus-GFP); assay type: cell-based, human; settings: PMA differentiated, RDG-Adenovirus-GFP 1000 MOI, IFNb AlphaLISA, overnight incubation, read-out: IC50 (μM), Cellular assay for Compounds 95-348
Method in brief: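 The readout is secreted IFNb measured by AlphaLISA after overnight compound exposure. THP1 cells, differentiated with PMA for 24 h and rested overnight, were infected with RDG-Adenovirus-GFP (1000 MOI, 4 h) before compounds were added; IC50 came from a 4-parameter logistic fit of inhibition against log concentration.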

recombinant human cGAS = recombinant human cGAS (Homo sapiens (Human), UniProt Q8N884); assay: In vitro inhibition assay of cGAS activity (cGAMP production, RapidFire mass spectrometry); assay type: biochemical; settings: 10 nM recombinant human cGAS, 60 nM 75-bp dsDNA, ATP, GTP, room temperature 3 hours, read-out: IC50 (μM), In vitro inhibition assay for Compounds 95-348
Method in brief: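 Product cGAMP was quantified by RapidFire MS against a difluoro-cGAMP internal standard after a formic acid quench. The reaction contained 10 nM recombinant full-length human cGAS, 75-bp dsDNA (60 nM), ATP and GTP (50 μM) and ran for 3 h at room temperature. IC50 values came from 4-parameter nonlinear regression.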

[2] = Homo sapiens, THP-1, THP1 cells

recombinant human cGAS, sequence (Q8N884 whole entry): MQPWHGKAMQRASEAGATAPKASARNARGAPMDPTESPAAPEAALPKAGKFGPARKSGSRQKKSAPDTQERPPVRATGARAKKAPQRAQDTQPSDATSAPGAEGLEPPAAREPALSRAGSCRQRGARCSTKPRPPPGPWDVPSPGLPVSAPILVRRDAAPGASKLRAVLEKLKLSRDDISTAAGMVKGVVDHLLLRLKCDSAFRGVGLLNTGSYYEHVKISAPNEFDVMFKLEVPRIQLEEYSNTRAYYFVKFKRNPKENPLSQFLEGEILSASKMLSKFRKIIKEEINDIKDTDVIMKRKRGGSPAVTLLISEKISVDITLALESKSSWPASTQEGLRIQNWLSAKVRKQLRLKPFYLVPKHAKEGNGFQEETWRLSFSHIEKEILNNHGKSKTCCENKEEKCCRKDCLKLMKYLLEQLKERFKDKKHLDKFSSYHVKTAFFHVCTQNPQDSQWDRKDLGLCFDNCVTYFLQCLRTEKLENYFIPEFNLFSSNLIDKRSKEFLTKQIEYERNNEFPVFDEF

IC50 [1, 2] [µM] | IC50 (recombinant human cGAS) [µM] | IC50 ([1]; THP1 cells) [µM] | Compound
2.34 | 0.0452 | – | OCC(O)CNc1cc(Cl)c(Cl)c2[nH]cc(-c3cn[nH]c3)c12 (single isomer, unassigned) [Example 261, 3-[[6,7-Dichloro-3-(1H-pyrazol-4-yl)-1H-indol-4-yl]amino]propane-1,2-diol]
0.198 | 0.00474 | – | OCCCOc1cc(Cl)c(Cl)c2[nH]c(CO)c(-c3cn[nH]c3)c12 [Example 338, 3-((6,7-Dichloro-2-(hydroxymethyl)-3-(1H-pyrazol-4-yl)-1H-indol-4-yl)oxy)propan-1-ol]
2.05 | 0.019 | – | CCOc1cc(Cl)c(Cl)c2c1c(-c1cn[nH]c1)c1n2CC[C@H]1NC(C)=O [Example 235, (R)—N-(5,6-Dichloro-8-ethoxy-9-(1H-pyrazol-4-yl)-2,3-dihydro-1H-pyrrolo[1,2-a]indol-1-yl)acetamide]
> 10 | 0.0331 | – | CC(=O)NCC(=O)NC1CCn2c1c(-c1cn[nH]c1)c1ccc(Cl)c(Cl)c12 (stereo not drawn) [Example 236, 2-Acetamido-N-(5,6-dichloro-9-(1H-pyrazol-4-yl)-2,3-dihydro-1H-pyrrolo[1,2-a]indol-1-yl)acetamide]
4.01 | 0.0284 | – | CN(C)C(=O)CCC(=O)N1CCn2c(c(-c3cn[nH]c3)c3c(NC(=O)C(F)F)cc(Cl)c(Cl)c32)C1 [Example 275, 4-[6,7-Dichloro-9-[(2,2-difluoroacetyl)amino]-10-(1H-pyrazol-4-yl)-3,4-dihydro-1H-pyrazino[1,2-a]indol-2-yl]-N,N-dimethyl-4-oxo-butanamide]
3.73 | 0.0303 | – | N#CCOc1cc(Cl)c(Cl)c2c1c(-c1cn[nH]c1)c1n2CCN(C(=O)CN2CCOCC2)C1 [Example 289, 2-((6,7-Dichloro-2-(2-morpholinoacetyl)-10-(1H-pyrazol-4-yl)-1,2,3,4-tetrahydropyrazino[1,2-a]indol-9-yl)oxy)acetonitrile]
0.56 | 0.0206 | – | O=C(Nc1cc(Cl)c(Cl)c2c1c(-c1cn[nH]c1)c1n2CCN(C(=O)[C@@H]2COCCO2)C1)C(F)F [Example 273, N-[6,7-Dichloro-2-[(2 S)-1,4-dioxane-2-carbonyl]-10-(1H-pyrazol-4-yl)-3,4-dihydro-1H-pyrazino[1,2-a]indol-9-yl]-2,2-difluoro-acetamide]
1.58 | 0.0445 | – | O=C(Nc1cc(Cl)c(Cl)c2c1c(-c1cn[nH]c1)c1n2CCN(C(=O)Cc2cnccn2)C1)C(F)F [Example 277, N-[6,7-Dichloro-2-(2-pyrazin-2-ylacetyl)-10-(1H-pyrazol-4-yl)-3,4-dihydro-1H-pyrazino[1,2-a]indol-9-yl]-2,2-difluoro-acetamide]
– | 0.0511 | > 10 | CC(=O)N1CCOC(CC(=O)N2CCn3c(c(-c4cn[nH]c4)c4ccc(Cl)c(Cl)c43)C2)C1 (single isomer, unassigned) [Example 265, 2-(4-acetylmorpholin-2-yl)-1-(6,7-dichloro-10-(1H-pyrazol-4-yl)-3,4-dihydropyrazino[1,2-a]indol-2(1H)-yl)ethan-1-one]
5.11 | 0.0203 | – | N#CCOc1cc(Cl)c(Cl)c2c1c(-c1cn[nH]c1)c1n2CCN(C(=O)Cn2cncn2)C1 [Example 287, 2-((2-(2-(1H-1,2,4-Triazol-1-yl)acetyl)-6,7-dichloro-10-(1H-pyrazol-4-yl)-1,2,3,4-tetrahydropyrazino[1,2-a]indol-9-yl)oxy)acetonitrile]
0.865 | 0.0122 | – | N#CCOc1cc(Cl)c(Cl)c2c1c(-c1cn[nH]c1)c1n2CCC1CO (stereo not drawn) [Example 347, 2-((5,6-Dichloro-1-(hydroxymethyl)-9-(1H-pyrazol-4-yl)-2,3-dihydro-1H-pyrrolo[1,2-a]indol-8-yl)oxy)acetonitrile]
– | 0.00769 | 0.914 | O=C(CO)NC1CCn2c1c(-c1cn[nH]c1)c1ccc(Cl)c(Cl)c12 (single isomer, unassigned) [Example 346, N-(5,6-Dichloro-9-(1H-pyrazol-4-yl)-2,3-dihydro-1H-pyrrolo[1,2-a]indol-1-yl)-2-hydroxyacetamide]
4.78 | 0.061 | – | N#CCOc1cc(Cl)c(Cl)c2c1c(-c1cn[nH]c1)c1n2CCN(C(=O)c2nccnc2C(=O)N2CCOCC2)C1 [Example 296, 2-((6,7-Dichloro-2-(3-(morpholine-4-carbonyl)pyrazine-2-carbonyl)-10-(1H-pyrazol-4-yl)-1,2,3,4-tetrahydropyrazino[1,2-a]indol-9-yl)oxy)acetonitrile]

More lines, now with the values behind:

Compound | IC50 [1, 2] [µM] | IC50 (recombinant human cGAS) [µM] | IC50 ([1]; THP1 cells) [µM]
CNNc1cc(Cl)c(Cl)c2[nH]cc(-c3cn[nH]c3)c12 [Example 215, 1-[6,7-Dichloro-3-(1H-pyrazol-4-yl)-1H-indol-4-yl]-2-methyl-hydrazine hydrochloride] | 2.59 | 0.0864 | –
NC(=O)Cn1cc(-n2cc(-c3cn[nH]c3)c3ccc(Cl)c(Cl)c32)nn1 [Example 213, 2-[4-[6,7-Dichloro-3-(1H-pyrazol-4-yl)indol-1-yl]triazol-1-yl]acetamide] | 4.1 | 0.0538 | –
O[C@H]1CC[C@@H](Oc2cc(Cl)c(Cl)c3[nH]cc(-c4cn[nH]c4)c23)C1 (racemic) [Example 100, Cis-3-((6,7-Dichloro-3-(1H-pyrazol-4-yl)-1H-indol-4-yl)oxy)cyclopentan-1-ol (racemic mixture)] | > 10 | 0.0356 | –
CNCC(=O)NCc1[nH]c2c(Cl)c(Cl)ccc2c1-c1cn[nH]c1 [Example 217, N-[[6,7-Dichloro-3-(1H-pyrazol-4-yl)-1H-indol-2-yl]methyl]-2-(methylamino)acetamide formic acid salt] | 2.12 | 0.0794 | –
O=C(Nc1cc(Cl)c(Cl)c2[nH]cc(-c3cn[nH]c3)c12)C(O)CO (stereo not drawn) [Example 185, N-[6,7-Dichloro-3-(1H-pyrazol-4-yl)-1H-indol-4-yl]-2,3-dihydroxy-propanamide] | 3.44 | 0.077 | –
CC(=O)Nc1cc(Cl)c(Cl)c2c1c(-c1cn[nH]c1)cn2-c1cn(CCO)nn1 [Example 199, N-[6,7-Dichloro-1-[1-(2-hydroxyethyl)triazol-4-yl]-3-(1H-pyrazol-4-yl)indol-4-yl]acetamide] | 2.66 | 0.0519 | –
CC(=S)Nc1cc(Cl)c(Cl)c2[nH]cc(-c3cn[nH]c3)c12 [Example 231, N-[6,7-Dichloro-3-(1H-pyrazol-4-yl)-1H-indol-4-yl]thioacetamide] | 1.01 | 0.0724 | –
F[C@H]1C[C@@H](Nc2cc(Cl)c(Cl)c3[nH]cc(-c4cn[nH]c4)c23)C1 [Example 208, Cis-6,7-Dichloro-N-(3-fluorocyclobutyl)-3-(1H-pyrazol-4-yl)-1H-indol-4-amine] | 2.54 | 0.0416 | –
O=C(Nc1cc(Cl)c(Cl)c2[nH]cc(-c3cn[nH]c3)c12)C(F)F [Example 171, N-[6,7-Dichloro-3-(1H-pyrazol-4-yl)-1H-indol-4-yl]-2,2-difluoro-acetamide] | 0.0689 | 0.00356 | –
Clc1cc(NC2COC2)c2c(-c3cn[nH]c3)c[nH]c2c1Cl [Example 177, 6,7-Dichloro-N-(oxetan-3-yl)-3-(1H-pyrazol-4-yl)-1H-indol-4-amine] | 1.13 | 0.0245 | –
Cn1cc(-n2cc(-c3cn[nH]c3)c3ccc(Cl)cc32)nn1 [Example 230, 6-Chloro-1-(1-methyltriazol-4-yl)-3-(1H-pyrazol-4-yl)indole] | 2.02 | 0.0693 | –
OCC(F)CNc1cc(Cl)c(Cl)c2[nH]cc(-c3cn[nH]c3)c12 (stereo not drawn) [Example 187, 3-[[6,7-Dichloro-3-(1H-pyrazol-4-yl)-1H-indol-4-yl]amino]-2-fluoro-propan-1-ol] | 0.326 | 0.0104 | –
OCCn1cc(-n2cc(-c3cn[nH]c3)c3ccc(Cl)c(Cl)c32)nn1 [Example 138, 2-[4-[6,7-Dichloro-3-(1H-pyrazol-4-yl)indol-1-yl]triazol-1-yl]ethanol] | 4.99 | 0.0462 | –
CC(=O)NCc1c(-c2cn[nH]c2)c2ccc(Cl)c(Cl)c2n1C [Example 134, N-[[6,7-Dichloro-1-methyl-3-(1H-pyrazol-4-yl)indol-2-yl]methyl]acetamide] | 1.59 | 0.0282 | –
N#CCOc1cc(Cl)c(Cl)c2c1c(-c1cn[nH]c1)c1n2CCN(CCO)C1=O [Example 142, 2-[[6,7-Dichloro-2-(2-hydroxyethyl)-1-oxo-10-(1H-pyrazol-4-yl)-3,4-dihydropyrazino[1,2-a]indol-9-yl]oxy]acetonitrile] | 3.14 | 0.0127 | –
O=C(Nc1cc(Cl)c(F)c2c1c(-c1cn[nH]c1)cn2-c1cn(CCO)nn1)C(F)F [Example 172, N-[6-Chloro-7-fluoro-1-[1-(2-hydroxyethyl)triazol-4-yl]-3-(1H-pyrazol-4-yl)indol-4-yl]-2,2-difluoro-acetamide] | 0.651 | 0.0341 | –
CN(C)C(=O)CCC(=O)N1CCn2c(c(-c3cn[nH]c3)c3c(OCC#N)cc(Cl)c(Cl)c32)C1 [Example 113, 4-[6,7-Dichloro-9-(cyanomethoxy)-10-(1H-pyrazol-4-yl)-3,4-dihydro-1H-pyrazino[1,2-a]indol-2-yl]-N,N-dimethyl-4-oxo-butanamide] | 3.46 | 0.018 | –
